{
  "source": "paper PMC11165695",
  "about": "(Nature methods, 2024)",
  "key": {"SJSA-1 cells": {"tested_on": "SJSA-1 cells", "assay": "Apoptosis induction / caspase-3/7 activation", "assay_type": "cell-based", "conditions": "Supplementary Figure 14"}, "[1]": {"tested_on": "alkaline phosphatase (ALP)", "conditions": "pNPP 200 μM, ALP 0.5 U/mL, PBS, room temperature, UV absorbance 405 nm"}},
  "data": [
    {"smiles": "COc1cccc2c1C(=O)c1c(O)c3c(c(O)c1C2=O)C[C@@](O)(C(=O)CO)C[C@@H]3O[C@H]1C[C@H](N)[C@H](O)[C@H](C)O1", "note": "[Doxorubicin]", "values": [
      {"measurement": "apoptosis induction", "setting": "SJSA-1 cells", "result": "efficiently induces apoptosis"}
    ]},
    {"smiles": "O=[N+]([O-])c1ccc(OP(=O)(O)O)cc1", "note": "[P-nitrophenyl phosphate]", "values": [
      {"measurement": "initial speed (v0), standard substrate", "setting": "[1]", "result": 0.53, "unit": "nmol/min"}
    ]}
  ]
}
